In ChEMBL document CHEMBL1131391, “Identification and characterization of m4 selective muscarinic antagonists” (Bioorg Med Chem Lett, 1998):

Target: T1, Muscarinic acetylcholine receptor M3 (Homo sapiens, UniProt P20309)
Assay: Compound was evaluated for its binding affinity at human muscarinic receptor Hm3 by the displacement of [3H]NMS radioligand using membranes from transfected chinese hamster ovarian cell at 1000 nM concentration
Target sequence in this assay (P20309 whole entry, looked up): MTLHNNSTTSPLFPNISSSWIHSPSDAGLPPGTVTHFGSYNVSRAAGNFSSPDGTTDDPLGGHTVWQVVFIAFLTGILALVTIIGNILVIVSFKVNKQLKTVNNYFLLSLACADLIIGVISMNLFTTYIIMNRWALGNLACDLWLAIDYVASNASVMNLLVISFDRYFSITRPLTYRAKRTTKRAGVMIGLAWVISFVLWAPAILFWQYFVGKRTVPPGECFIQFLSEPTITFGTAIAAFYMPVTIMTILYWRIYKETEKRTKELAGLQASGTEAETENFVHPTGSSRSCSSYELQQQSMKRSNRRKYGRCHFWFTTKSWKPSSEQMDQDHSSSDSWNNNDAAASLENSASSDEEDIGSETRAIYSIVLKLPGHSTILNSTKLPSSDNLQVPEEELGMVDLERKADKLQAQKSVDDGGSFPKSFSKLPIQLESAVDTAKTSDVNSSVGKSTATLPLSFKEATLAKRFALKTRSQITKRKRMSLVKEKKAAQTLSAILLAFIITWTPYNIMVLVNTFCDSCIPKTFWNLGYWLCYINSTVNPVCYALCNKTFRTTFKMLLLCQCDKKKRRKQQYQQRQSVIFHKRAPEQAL

Row | SMILES | inhibition [%]
1 | CCOC(=O)c1c(C)[nH]c2ccc3c(c12)C[N+]1(C)CCc2cc(OC)ccc2C1O3 (stereo not drawn) | 0

Target: T2, Muscarinic acetylcholine receptor M1 (Homo sapiens, UniProt P11229)
T2 sequence (P11229 whole entry): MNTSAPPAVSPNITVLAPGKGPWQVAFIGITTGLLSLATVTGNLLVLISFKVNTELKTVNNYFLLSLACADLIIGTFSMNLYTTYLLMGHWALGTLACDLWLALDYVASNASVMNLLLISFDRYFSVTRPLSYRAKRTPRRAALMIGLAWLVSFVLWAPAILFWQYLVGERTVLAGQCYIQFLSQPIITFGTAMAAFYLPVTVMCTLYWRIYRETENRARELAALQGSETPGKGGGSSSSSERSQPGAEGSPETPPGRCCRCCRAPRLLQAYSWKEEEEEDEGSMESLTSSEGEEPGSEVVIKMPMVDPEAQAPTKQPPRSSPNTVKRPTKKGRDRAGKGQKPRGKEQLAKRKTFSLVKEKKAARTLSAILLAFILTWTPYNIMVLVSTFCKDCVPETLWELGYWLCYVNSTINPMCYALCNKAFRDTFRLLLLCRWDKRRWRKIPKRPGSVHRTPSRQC
Assay: Evaluated for its binding affinity at human muscarinic receptor m1 by displacement of [3H]NMS binding using membranes in transfected chinese hamster ovarian cell
Type: cell-based

Row | SMILES | IC50 [µM]
2 | COC(=O)c1c(C)[nH]c2ccc3c(c12)CN1CCc2ccccc2C1O3 (stereo not drawn) | 7.12
3 | CCOC(=O)c1c[nH]c2ccc3c(c12)CN1CCc2cc(OC)ccc2C1O3 (stereo not drawn) | 5.62
4 | CCCOC(=O)c1c(C)[nH]c2ccc3c(c12)CN1CCc2cc(OC)ccc2C1O3 (stereo not drawn) | 1.96
5 | COC(=O)c1c(C)[nH]c2ccc3c(c12)CN1CCc2cc(OC)ccc2C1O3 (stereo not drawn) | 3.79
6 | CCOC(=O)c1c[nH]c2ccc3c(c12)CN1CCc2cc(OC)c(OC)cc2C1O3 (stereo not drawn) | 8.22
7 | CCOC(=O)c1c(C)[nH]c2ccc3c(c12)CN1CCc2cccc(C)c2C1O3 (stereo not drawn) | 6.11
8 | CCOC(=O)c1c(C)[nH]c2ccc3c(c12)CN1CCc2ccccc2C1O3 (stereo not drawn) | 5.01
9 | CCOC(=O)c1c(C)[nH]c2ccc3c(c12)CN1CCc2ccc(OC)cc2C1O3 (stereo not drawn) | 9.02

Target: T1, Muscarinic acetylcholine receptor M3
Assay: Evaluated for its binding affinity at human muscarinic receptor m3 by the displacement of [3H]NMS binding using membranes from transfected chinese hamster ovarian cell
Type: cell-based
Target sequence in this assay (P20309 whole entry): as the sequence (P20309 whole entry, looked up) above

Row | SMILES | IC50 [µM]
10 | COC(=O)c1c(C)[nH]c2ccc3c(c12)CN1CCc2ccccc2C1O3 (stereo not drawn) | 12.6
11 | CCOC(=O)c1c[nH]c2ccc3c(c12)CN1CCc2cc(OC)ccc2C1O3 (stereo not drawn) | 3.7
12 | CCCOC(=O)c1c(C)[nH]c2ccc3c(c12)CN1CCc2cc(OC)ccc2C1O3 (stereo not drawn) | 1.48
13 | COC(=O)c1c(C)[nH]c2ccc3c(c12)CN1CCc2cc(OC)ccc2C1O3 (stereo not drawn) | 3.39
14 | CCOC(=O)c1c[nH]c2ccc3c(c12)CN1CCc2cc(OC)c(OC)cc2C1O3 (stereo not drawn) | 10.3
15 | CCOC(=O)c1c(C)[nH]c2ccc3c(c12)CN1CCc2cccc(C)c2C1O3 (stereo not drawn) | 2.83
16 | CCOC(=O)c1c(C)[nH]c2ccc3c(c12)CN1CCc2ccccc2C1O3 (stereo not drawn) | 5.49
17 | CCOC(=O)c1c(C)[nH]c2ccc3c(c12)CN1CCc2ccc(OC)cc2C1O3 (stereo not drawn) | 10.8

Target: T3, Muscarinic acetylcholine receptor M4 (Homo sapiens, UniProt P08173)
T3 sequence (P08173 whole entry): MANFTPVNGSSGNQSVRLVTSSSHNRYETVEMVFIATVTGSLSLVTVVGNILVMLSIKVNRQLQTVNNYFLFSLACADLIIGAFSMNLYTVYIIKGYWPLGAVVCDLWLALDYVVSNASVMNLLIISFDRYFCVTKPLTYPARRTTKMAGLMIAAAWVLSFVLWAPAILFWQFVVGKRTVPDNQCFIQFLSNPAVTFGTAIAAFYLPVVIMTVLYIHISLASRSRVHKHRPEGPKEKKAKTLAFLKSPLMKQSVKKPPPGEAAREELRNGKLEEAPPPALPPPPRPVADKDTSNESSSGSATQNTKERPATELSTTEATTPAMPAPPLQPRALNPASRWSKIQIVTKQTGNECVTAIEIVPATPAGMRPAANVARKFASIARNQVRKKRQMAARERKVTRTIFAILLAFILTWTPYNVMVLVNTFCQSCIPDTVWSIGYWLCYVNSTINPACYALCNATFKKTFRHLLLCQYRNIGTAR
Assay: Evaluated for its binding affinity at human muscarinic receptor m4 by the displacement of [3H]NMS binding using membranes from transfected chinese hamster ovarian cell

Row | SMILES | IC50 [µM]
18 | COC(=O)c1c(C)[nH]c2ccc3c(c12)CN1CCc2ccccc2C1O3 (stereo not drawn) | 9.93
19 | CCOC(=O)c1c[nH]c2ccc3c(c12)CN1CCc2cc(OC)ccc2C1O3 (stereo not drawn) | 0.334
20 | CCCOC(=O)c1c(C)[nH]c2ccc3c(c12)CN1CCc2cc(OC)ccc2C1O3 (stereo not drawn) | 0.36
21 | COC(=O)c1c(C)[nH]c2ccc3c(c12)CN1CCc2cc(OC)ccc2C1O3 (stereo not drawn) | 0.501
22 | CCOC(=O)c1c[nH]c2ccc3c(c12)CN1CCc2cc(OC)c(OC)cc2C1O3 (stereo not drawn) | 1.5
23 | CCOC(=O)c1c(C)[nH]c2ccc3c(c12)CN1CCc2cccc(C)c2C1O3 (stereo not drawn) | 1.47
24 | CCOC(=O)c1c(C)[nH]c2ccc3c(c12)CN1CCc2ccccc2C1O3 (stereo not drawn) | 3.71
25 | CCOC(=O)c1c(C)[nH]c2ccc3c(c12)CN1CCc2ccc(OC)cc2C1O3 (stereo not drawn) | 6.03

Target: T4, Muscarinic acetylcholine receptor M5 (Homo sapiens) (UniProt P08912)
T4 sequence (whole entry): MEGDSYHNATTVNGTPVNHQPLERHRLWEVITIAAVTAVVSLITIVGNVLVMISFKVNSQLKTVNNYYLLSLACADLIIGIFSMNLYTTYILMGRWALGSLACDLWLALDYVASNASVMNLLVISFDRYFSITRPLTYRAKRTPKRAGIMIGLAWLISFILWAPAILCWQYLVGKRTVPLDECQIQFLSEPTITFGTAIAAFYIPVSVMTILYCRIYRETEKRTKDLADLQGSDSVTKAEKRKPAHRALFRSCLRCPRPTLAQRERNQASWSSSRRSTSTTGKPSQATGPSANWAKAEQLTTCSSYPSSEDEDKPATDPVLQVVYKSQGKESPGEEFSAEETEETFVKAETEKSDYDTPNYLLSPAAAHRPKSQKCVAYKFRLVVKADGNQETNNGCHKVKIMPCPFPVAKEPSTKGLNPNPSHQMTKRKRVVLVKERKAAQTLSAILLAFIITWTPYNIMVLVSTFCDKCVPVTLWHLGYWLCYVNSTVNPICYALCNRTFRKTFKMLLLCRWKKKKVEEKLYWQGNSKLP
Assay: Compound was evaluated for its binding affinity at human muscarinic receptor Hm5 by the displacement of [3H]NMS radioligand using membranes from transfected chinese hamster ovarian cell at 100 nM concentration

Row | SMILES | inhibition [%]
26 | CCOC(=O)c1c(C)[nH]c2ccc3c(c12)C[N+]1(C)CCc2cc(OC)ccc2C1O3 (stereo not drawn) | 0.9

Target: T5, Muscarinic acetylcholine receptor M2 (Homo sapiens) (UniProt P08172)
T5 sequence (whole entry): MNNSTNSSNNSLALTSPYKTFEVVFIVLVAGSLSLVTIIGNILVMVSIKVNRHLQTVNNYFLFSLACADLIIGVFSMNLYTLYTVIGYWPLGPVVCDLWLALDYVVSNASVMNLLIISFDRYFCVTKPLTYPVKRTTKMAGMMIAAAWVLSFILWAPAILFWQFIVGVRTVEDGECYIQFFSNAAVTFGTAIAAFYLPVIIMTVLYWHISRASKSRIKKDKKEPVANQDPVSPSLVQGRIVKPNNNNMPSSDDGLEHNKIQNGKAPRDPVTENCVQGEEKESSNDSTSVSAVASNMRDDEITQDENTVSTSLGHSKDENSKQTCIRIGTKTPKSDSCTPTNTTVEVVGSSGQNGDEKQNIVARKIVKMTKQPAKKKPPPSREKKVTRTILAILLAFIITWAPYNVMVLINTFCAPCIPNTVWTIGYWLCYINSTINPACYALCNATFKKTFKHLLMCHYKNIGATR
Assay: Compound was evaluated for its binding affinity at human muscarinic receptor m2 by the displacement of [3H]NMS radioligand using membranes from transfected chinese hamster ovarian cell at 1000 nM concentration

Row | SMILES | inhibition [%]
27 | CCOC(=O)c1c(C)[nH]c2ccc3c(c12)C[N+]1(C)CCc2cc(OC)ccc2C1O3 (stereo not drawn) | 29.9

Target: T6, Muscarinic acetylcholine receptor M4 (Homo sapiens) (UniProt P08173)
T6 sequence (whole entry): T3 sequence (P08173 whole entry)
Assay: Compound was evaluated for its binding affinity at human muscarinic receptor Hm4 by the displacement of [3H]-NMS radioligand using membranes from transfected chinese hamster ovarian cell at 1000 nM concentration

Row | SMILES | inhibition [%]
28 | CCOC(=O)c1c(C)[nH]c2ccc3c(c12)C[N+]1(C)CCc2cc(OC)ccc2C1O3 (stereo not drawn) | 19.9

Target: T6, Muscarinic acetylcholine receptor M4 (Homo sapiens)
Assay: Compound was evaluated for its binding affinity at human muscarinic receptor Hm4 by the displacement of [3H]NMS radioligand using membranes from transfected chinese hamster ovarian cell at 100 nM concentration

Row | SMILES | inhibition [%]
29 | CCOC(=O)c1c(C)[nH]c2ccc3c(c12)C[N+]1(C)CCc2cc(OC)ccc2C1O3 (stereo not drawn) | 0

Target: T7, Muscarinic acetylcholine receptor M5 (Homo sapiens, UniProt P08912)
T7 sequence (P08912 whole entry): T4 sequence (whole entry)
Assay: Evaluated for its binding affinity at human muscarinic receptor m5 by the displacement of [3H]NMS binding using membranes from transfected chinese hamster ovarian cell

Row | SMILES | IC50 [µM]
30 | COC(=O)c1c(C)[nH]c2ccc3c(c12)CN1CCc2ccccc2C1O3 (stereo not drawn) | 5.76
31 | CCOC(=O)c1c[nH]c2ccc3c(c12)CN1CCc2cc(OC)ccc2C1O3 (stereo not drawn) | 6
32 | CCCOC(=O)c1c(C)[nH]c2ccc3c(c12)CN1CCc2cc(OC)ccc2C1O3 (stereo not drawn) | 3.81
33 | COC(=O)c1c(C)[nH]c2ccc3c(c12)CN1CCc2cc(OC)ccc2C1O3 (stereo not drawn) | 4.09
34 | CCOC(=O)c1c[nH]c2ccc3c(c12)CN1CCc2cc(OC)c(OC)cc2C1O3 (stereo not drawn) | 47.4
35 | CCOC(=O)c1c(C)[nH]c2ccc3c(c12)CN1CCc2cccc(C)c2C1O3 (stereo not drawn) | 1.73
36 | CCOC(=O)c1c(C)[nH]c2ccc3c(c12)CN1CCc2ccccc2C1O3 (stereo not drawn) | 4.19
37 | CCOC(=O)c1c(C)[nH]c2ccc3c(c12)CN1CCc2ccc(OC)cc2C1O3 (stereo not drawn) | 8.21

Target: T8, Muscarinic acetylcholine receptor M2 (Homo sapiens, UniProt P08172)
T8 sequence (P08172 whole entry): T5 sequence (whole entry)
Assay: Evaluated for its binding affinity at human muscarinic receptor m2 by displacement of [3H]NMS binding using membranes from transfected chinese hamster ovarian cell

Row | SMILES | IC50 [µM]
38 | COC(=O)c1c(C)[nH]c2ccc3c(c12)CN1CCc2ccccc2C1O3 (stereo not drawn) | 4.66
39 | CCOC(=O)c1c[nH]c2ccc3c(c12)CN1CCc2cc(OC)ccc2C1O3 (stereo not drawn) | 4.56
40 | CCCOC(=O)c1c(C)[nH]c2ccc3c(c12)CN1CCc2cc(OC)ccc2C1O3 (stereo not drawn) | 1.91
41 | COC(=O)c1c(C)[nH]c2ccc3c(c12)CN1CCc2cc(OC)ccc2C1O3 (stereo not drawn) | 13.1
42 | CCOC(=O)c1c[nH]c2ccc3c(c12)CN1CCc2cc(OC)c(OC)cc2C1O3 (stereo not drawn) | 7.7
43 | CCOC(=O)c1c(C)[nH]c2ccc3c(c12)CN1CCc2cccc(C)c2C1O3 (stereo not drawn) | < 1
44 | CCOC(=O)c1c(C)[nH]c2ccc3c(c12)CN1CCc2ccccc2C1O3 (stereo not drawn) | 2.68
45 | CCOC(=O)c1c(C)[nH]c2ccc3c(c12)CN1CCc2ccc(OC)cc2C1O3 (stereo not drawn) | 3

Target: T5, Muscarinic acetylcholine receptor M2 (Homo sapiens)
Assay: Compound was evaluated for its binding affinity at human muscarinic receptor m2 by displacement of [3H]NMS radioligand using membranes from transfected chinese hamster ovarian cell at 100 nM concentration

Row | SMILES | inhibition [%]
46 | CCOC(=O)c1c(C)[nH]c2ccc3c(c12)C[N+]1(C)CCc2cc(OC)ccc2C1O3 (stereo not drawn) | 14.7

Target: T1, Muscarinic acetylcholine receptor M3
Assay: Compound was evaluated for its binding affinity at human muscarinic receptor Hm3 by the displacement of [3H]NMS radioligand using membranes from transfected chinese hamster ovarian cell at 100 nM concentration
Target sequence in this assay (P20309 whole entry, looked up): as the sequence (P20309 whole entry, looked up) above

Row | SMILES | inhibition [%]
47 | CCOC(=O)c1c(C)[nH]c2ccc3c(c12)C[N+]1(C)CCc2cc(OC)ccc2C1O3 (stereo not drawn) | 0

Target: T4, Muscarinic acetylcholine receptor M5 (Homo sapiens)
Assay: Compound was evaluated for its binding affinity at human muscarinic receptor Hm5 by the displacement of [3H]-NMS radioligand using membranes from transfected chinese hamster ovarian cell at 1000 nM concentration

Row | SMILES | inhibition [%]
48 | CCOC(=O)c1c(C)[nH]c2ccc3c(c12)C[N+]1(C)CCc2cc(OC)ccc2C1O3 (stereo not drawn) | 1.6
